Results as given in ChEMBL document CHEMBL1134805, “Cyclic imides as potent and selective alpha-1A adrenergic receptor antagonists” (Bioorg Med Chem Lett, 2001).

Columns and labels:
[1] = molecular target: T1, Alpha-1D adrenergic receptor (Homo sapiens, UniProt P25100); test: In vitro binding affinity towards cloned human Alpha-1D adrenergic receptor
T1 sequence (P25100 whole entry): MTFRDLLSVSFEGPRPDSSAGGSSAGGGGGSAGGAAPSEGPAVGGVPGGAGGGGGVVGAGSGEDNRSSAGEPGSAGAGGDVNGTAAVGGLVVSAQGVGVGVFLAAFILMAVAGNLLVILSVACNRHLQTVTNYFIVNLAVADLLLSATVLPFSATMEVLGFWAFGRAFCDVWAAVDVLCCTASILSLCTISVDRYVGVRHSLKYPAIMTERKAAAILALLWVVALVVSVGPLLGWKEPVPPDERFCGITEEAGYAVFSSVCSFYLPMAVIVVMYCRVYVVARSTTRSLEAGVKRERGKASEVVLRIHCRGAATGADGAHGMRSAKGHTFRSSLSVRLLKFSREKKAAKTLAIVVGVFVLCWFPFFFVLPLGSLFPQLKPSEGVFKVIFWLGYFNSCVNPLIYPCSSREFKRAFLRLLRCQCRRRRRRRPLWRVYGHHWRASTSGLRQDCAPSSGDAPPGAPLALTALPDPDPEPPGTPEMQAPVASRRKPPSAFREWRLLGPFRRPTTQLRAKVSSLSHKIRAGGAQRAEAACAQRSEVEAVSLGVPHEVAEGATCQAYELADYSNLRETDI

[2] = molecular target: T2, Alpha-1A adrenergic receptor (Homo sapiens, UniProt P35348); test: In vitro binding affinity towards cloned human Alpha-1A adrenergic receptor
T2 sequence (P35348 whole entry): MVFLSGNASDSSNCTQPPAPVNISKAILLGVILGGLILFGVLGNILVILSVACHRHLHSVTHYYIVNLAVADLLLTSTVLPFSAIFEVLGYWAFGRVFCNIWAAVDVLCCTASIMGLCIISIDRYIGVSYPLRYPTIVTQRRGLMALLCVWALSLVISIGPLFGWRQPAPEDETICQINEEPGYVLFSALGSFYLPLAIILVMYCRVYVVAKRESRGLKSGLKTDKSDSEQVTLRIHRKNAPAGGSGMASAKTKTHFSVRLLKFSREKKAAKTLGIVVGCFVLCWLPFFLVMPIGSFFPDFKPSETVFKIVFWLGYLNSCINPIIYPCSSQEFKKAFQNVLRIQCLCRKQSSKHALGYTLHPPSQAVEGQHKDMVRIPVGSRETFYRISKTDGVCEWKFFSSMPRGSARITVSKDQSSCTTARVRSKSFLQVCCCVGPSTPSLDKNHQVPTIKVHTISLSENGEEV

[3] = molecular target: T3, Alpha-1B adrenergic receptor (Homo sapiens, UniProt P35368); test: In vitro binding affinity towards cloned human Alpha-1B adrenergic receptor
T3 sequence (P35368 whole entry): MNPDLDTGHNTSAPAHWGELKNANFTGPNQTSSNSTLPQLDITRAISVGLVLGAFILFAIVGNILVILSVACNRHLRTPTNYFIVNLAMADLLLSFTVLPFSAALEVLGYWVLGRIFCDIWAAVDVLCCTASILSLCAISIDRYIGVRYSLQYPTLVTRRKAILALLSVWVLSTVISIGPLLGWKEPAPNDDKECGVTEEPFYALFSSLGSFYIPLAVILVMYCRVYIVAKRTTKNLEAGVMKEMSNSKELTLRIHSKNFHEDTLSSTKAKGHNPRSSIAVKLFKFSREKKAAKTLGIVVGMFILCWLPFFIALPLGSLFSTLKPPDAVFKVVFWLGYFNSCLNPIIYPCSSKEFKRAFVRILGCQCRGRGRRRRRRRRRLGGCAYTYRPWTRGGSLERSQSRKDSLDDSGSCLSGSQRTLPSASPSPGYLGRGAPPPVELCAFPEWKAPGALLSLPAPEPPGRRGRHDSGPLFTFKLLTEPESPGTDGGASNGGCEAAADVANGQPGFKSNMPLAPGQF

[4] = Bioavailability in rat (Sprague-Dawley) (male) (dose 1 mg/kg i.v. and 3 mg/kg p.o.) measured from 0.3 to 6 hr; format: ADME, organism-based; settings: in vivo, po
[5] = Bioavailability in dog (Beagle) (male) (dose 3 mg/kg i.v. and 10 mg/kg p.o.) measured from 1 to 24 hr; format: ADME, organism-based, Canis lupus familiaris; settings: in vivo, po
[6] = Half-life in rats; format: ADME, organism-based; settings: rat, in vivo
[7] = Half-life in dogs; format: ADME, organism-based, Canis lupus familiaris; settings: dog, in vivo

Row | Ki [1] | Ki [2] | Ki [3] | bioavailability [4] | bioavailability [5] | half-life [6] | half-life [7] | SMILES
1 | > 5000 nM | 220 nM | > 2000 nM |  |  |  |  | Cc1ccc(C2(c3ccc(C)cc3)CC(=S)N(CCCN3CCC(C#N)(c4ccccc4Cl)CC3)C2=O)cc1
2 | 1500 nM | 1.7 nM | 1900 nM | 18% | 8% | 2.5 h | 1.3 h | Cc1ccc(C2(c3ccc(C)cc3)CC(=O)N(CCCN3CCC(C#N)(c4ccccc4C)CC3)C2=O)cc1
3 | > 5000 nM | 77 nM | > 2000 nM |  |  |  |  | Cc1ccc(C2(c3ccc(C)cc3)OC(=O)N(CCCN3CCC(C#N)(c4ccccc4C)CC3)C2=O)cc1

Further lines, the molecule ahead of its results:

Row | SMILES | Ki [1] | Ki [2] | Ki [3] | bioavailability [4] | bioavailability [5] | half-life [6] | half-life [7]
4 | COC(=O)C1(c2ccccc2)CCN(CCCNC(=O)C(c2ccc(C)cc2)c2ccc(C)cc2)CC1 | 975 nM | 17 nM | 170 nM |  |  |  | 
5 | Cc1ccc(C(O)(C(=O)NCCCN2CCC(C#N)(c3ccccc3)CC2)c2ccc(C)cc2)cc1 | 4800 nM | 5.7 nM | 1800 nM |  |  |  | 
6 | Cc1ccc(C2(c3ccc(C)cc3)CC(=O)N(CC(O)CN3CCC(C#N)(c4ccccc4C)CC3)C2=O)cc1 (centres undefined) | 4100 nM | 9.7 nM | 1500 nM |  |  |  | 
7 | Cc1ccc(C2(c3ccc(C)cc3)CC(=O)N(CCCN3CCC(C#N)(c4ccccc4Cl)CC3)C2=O)cc1 | 220 nM | 0.48 nM | 98 nM | 19% | 11% | 0.66 h | 1.7 h
8 | Cc1ccc(C(O)(C(=O)NCCCN2CCC(C#N)(c3ccccc3C)CC2)c2ccc(C)cc2)cc1 | 1500 nM | 2 nM | 570 nM | < 1% |  | 1.3 h | 
